Data as given in US12570673B2, “c-Myc protein inhibitor, and preparation method therefor and use thereof” (SUZHOU KINTOR PHARMACEUTICALS, INC., priority 2019, dated 2026).

Legend:
HL60 cells = assay: Anti-cancer activity test, MTT, HL60 cells; type: cell-based; conditions: Homo sapiens, HL-60, culturing for 72 hours
Procedure: (§1) Cell culture medium: Roswell medium RPMI-1640 (+L-glutamine) was added with 10% fetal bovine serum, with 100 units penicillin and 100 μg streptomycin per ml.
(§2) Cell culture conditions: 5% CO2, 95% humidity, cultured at 37° C. constant temperature.
(§3) 2. Cell Inoculation, Drugs Dosing and Culture.
(§4) Logarithmic growth phase HL-60, human chronic myeloid leukemia cells (K562), human esophageal squamous cell carcinoma cells (KYSE510), human large cell lung cancer cells (H460) were inoculated into 96-well cell culture plates, 2×10^4 cells per well. Different concentrations of active compounds (dissolved in dimethyl sulfoxide (DMSO) stock solution) were added, so that the final concentration of DMSO was 0.2%, and the control group was DMSO. Each group was repeated three times.
(§5) After culturing for 72 hours, 20 µL of thiazolyl blue (MTT) (5 mg/ml, ready for use, dissolved in 1×PBS for cell culture) was added to each well, and incubated at 37° C. for 3 hours.
(§6) The 96-well cell culture plates were centrifuged at 1000 rpm for 10 minutes. The supernatant was discarded; 200 μL of DMSO was added to each well and the plate was shaken for 5 minutes.
(§7) The absorbance of each well was detected at 570 nm wavelength with a microplate reader, and the IC50 of the compounds was calculated.

[1] = molecular target: c-Myc370-412-biotin peptide (Homo sapiens (Human), UniProt P01106); assay: SPR binding affinity on c-Myc protein; conditions: c-Myc370-412-biotin peptide immobilized, 1.00×PBS-P buffer (5% DMSO)
c-Myc370-412-biotin peptide, sequence (P01106 385-427): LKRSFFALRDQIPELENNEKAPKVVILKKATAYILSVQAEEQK
Procedure: 1. Experiment Preparation
10×PBS-P was diluted into 1.05×PBS-P buffer solution for later use. The c-Myc370-412-biotin peptide was dissolved in chromatographic pure DMSO to prepare a 1 mM stock solution. The molecules were dissolved in chromatographic pure DMSO to prepare a 10 mM stock solution. Part of 1.05×PBS-P buffer was added to chromatographic pure DMSO to prepare 1.00×PBS-P buffer (5% DMSO, ready for use).
The highest solubility of each small molecule in the 1.00×PBS-P buffer (5% DMSO) system was tested respectively. This solubility was used as the highest concentration tested for small molecule activity.
2. Protein Immobilization
The c-Myc370-412-biotin peptide stock solution was added to 1.05×PBS-P buffer to prepare a 50 μM solution, and then diluted with 1.00×PBS-P buffer (5% DMSO) to […] for protein immobilization.
After washing the sample channel and reference channel of the chip with 1.00×PBS-P buffer (5% DMSO), an automatic mode was used to immobilize the protein in the sample channel. The target amount of the immobilized protein was 500RU. The immobilization was successful. The buffer was used continuously to flush until equilibrium.
3. Small Molecule Activity Test.
Buffer was used to prepare different concentrations of small molecule compounds for sample testing. The system was 1.00×PBS-P buffer (5% DMSO). The difference was detected between the response of small molecules flowing through the sample channel and the reference channel.
The experimental conditions were a flow rate of 30 μL/min, binding time of 120 seconds, and dissociation time of 240 seconds. After each binding and dissociation test, 50% DMSO was used to flush the tubing, and 10 mM glycine-HCl buffer (pH 2.1) was used to flush the surface of the chip to wash away the remaining compound molecules.

c-Myc peptide LE40 = c-Myc peptide LE40 (Homo sapiens, UniProt P01106); assay: Single-cycle binding kinetics with c-Myc peptide LE40
[2] = molecular target: c-Myc peptide LE40 (S373A) (Homo sapiens, UniProt P01106, S373A); assay: Single-cycle binding kinetics with c-Myc peptide LE40 (S373A)
c-Myc protein = c-Myc protein (Homo sapiens (Human), UniProt P01106); assay: Degradation of c-Myc protein
c-Myc protein, sequence (P01106 whole entry): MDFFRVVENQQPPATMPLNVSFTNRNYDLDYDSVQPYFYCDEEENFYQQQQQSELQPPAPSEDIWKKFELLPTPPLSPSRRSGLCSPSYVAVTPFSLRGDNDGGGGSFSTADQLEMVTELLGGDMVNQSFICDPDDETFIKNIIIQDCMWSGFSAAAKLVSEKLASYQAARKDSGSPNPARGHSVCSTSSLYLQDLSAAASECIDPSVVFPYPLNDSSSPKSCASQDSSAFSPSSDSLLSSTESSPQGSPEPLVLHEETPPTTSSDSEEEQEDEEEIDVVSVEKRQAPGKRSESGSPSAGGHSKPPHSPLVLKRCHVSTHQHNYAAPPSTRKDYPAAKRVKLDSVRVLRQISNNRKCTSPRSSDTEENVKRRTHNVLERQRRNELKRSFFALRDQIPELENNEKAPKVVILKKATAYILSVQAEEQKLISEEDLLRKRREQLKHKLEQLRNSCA

[3] = test system: human chronic myeloid leukemia cells (K562); assay: Anti-cancer activity test, MTT, K562 cells; type: cell-based; conditions: culturing for 72 hours
Procedure: as §1, §2, §3, §4, §5, §6, §7

[4] = test system: human esophageal squamous cell carcinoma cells (KYSE510); assay: Anti-cancer activity test, MTT, KYSE510 cells; type: cell-based; conditions: KYSE-510, culturing for 72 hours
Procedure: as §1, §2, §3, §4, §5, §6, §7

[5] = test system: human large cell lung cancer cells (H460); assay: Anti-cancer activity test, MTT, H460 cells; type: cell-based; conditions: NCI-H460, culturing for 72 hours
Procedure: as §1, §2, §3, §4, §5, §6, §7

c-Myc and Max = c-Myc and Max (Homo sapiens (Human), UniProt P01106); assay: Competition for the binding of c-Myc and Max
c-Myc and Max, sequence (P01106 whole entry): as above

[6] = test system: tumor cells with high expression of c-Myc; assay: Inhibition of tumor cells with high expression of c-Myc; type: cell-based

`CC(C)C[C@H](NC(=O)[C@@H](NC(=O)OCC1c2ccccc2-c2ccccc21)[C@@H](C)OC(C)(C)C)B1O[C@@H]2C[C@@H]3C[C@@H](C3(C)C)[C@]2(C)O1` [Compound A2] was tested. Which IC50 (HL60 cells) did it give?
The IC50 was less than 100 nM.

And the Kd [1]?
Its Kd is 100 to 500 nM.

`CC(C)C[C@H](NC(=O)[C@H](CSC(c1ccccc1)(c1ccccc1)c1ccccc1)NC(=O)OCC1c2ccccc2-c2ccccc21)B1O[C@@H]2C[C@@H]3C[C@@H](C3(C)C)[C@]2(C)O1` [Compound A3] was tested. Which IC50 (HL60 cells) did it give?
Its IC50 is 500 to 2000 nM.

What about the Kd [1] of the same molecule?
The Kd was 100 to 500 nM.

What does the source list for `CC(C)C[C@H](NC(=O)[C@H](Cc1cn(C(c2ccccc2)(c2ccccc2)c2ccccc2)cn1)NC(=O)OCC1c2ccccc2-c2ccccc21)B1O[C@@H]2C[C@@H]3C[C@@H](C3(C)C)[C@]2(C)O1` [Compound A4]?
IC50 (HL60 cells): < 100 nM; Kd [1]: < 100 nM

Which IC50 (HL60 cells) does the source give for `CSCC[C@H](NC(=O)OCC1c2ccccc2-c2ccccc21)C(=O)N[C@@H](CC(C)C)B1O[C@@H]2C[C@@H]3C[C@@H](C3(C)C)[C@]2(C)O1` [Compound A5] here?
Its IC50 is less than 100 nM.

And the Kd [1]?
The Kd was 100 to 500 nM.

What about the Kd (c-Myc peptide LE40) of the same molecule?
Its Kd is 160 nM.

And the “binding (single-cycle binding kinetic curve)” value [2]?
Its value is “no obvious binding”.

And the “degradation of c-Myc protein” value (c-Myc protein)?
Its value is “promote the degradation of c-Myc protein”.

Which IC50 (HL60 cells) does the source give for `CC(C)C[C@H](NC(=O)[C@H](CCC(=O)NC(c1ccccc1)(c1ccccc1)c1ccccc1)NC(=O)OCC1c2ccccc2-c2ccccc21)B1O[C@@H]2C[C@@H]3C[C@@H](C3(C)C)[C@]2(C)O1` [Compound A6] here?
Its IC50 is less than 100 nM.

And the Kd [1]?
Its Kd is less than 100 nM.

Which results are given for `CC(C)C[C@H](NC(=O)[C@H](CCC(=O)OC(C)(C)C)NC(=O)OCC1c2ccccc2-c2ccccc21)B1O[C@@H]2C[C@@H]3C[C@@H](C3(C)C)[C@]2(C)O1` [Compound A7]?
IC50 (HL60 cells): < 100 nM; Kd [1]: < 100 nM

With `CC(C)C[C@H](NC(=O)[C@H](CC(C)C)NC(=O)OCC1c2ccccc2-c2ccccc21)B1O[C@@H]2C[C@@H]3C[C@@H](C3(C)C)[C@]2(C)O1` [Compound A10] as the molecule, how does the IC50 (HL60 cells) read?
Its IC50 is less than 100 nM.

What about the IC50 [3] of the same molecule?
The IC50 was less than 100 nM.

And the IC50 [4]?
The IC50 was less than 100 nM.

What about the IC50 [5] of the same molecule?
Its IC50 is less than 100 nM.

With `CC(C)C[C@H](NC(=O)[C@H](CCCCNC(=O)OC(C)(C)C)NC(=O)OCC1c2ccccc2-c2ccccc21)B1O[C@@H]2C[C@@H]3C[C@@H](C3(C)C)[C@]2(C)O1` [Compound A13] as the molecule, how does the IC50 (HL60 cells) read?
Its IC50 is less than 100 nM.

And the “competition for the binding of c-Myc and Max” value (c-Myc and Max)?
The value was “can compete for the binding of c-Myc and Max”.

What about the “degradation of c-Myc protein” value (c-Myc protein) of the same molecule?
Its value is “promote the degradation of c-Myc protein”.

What about the “selective inhibition of tumor cells with high expression of c-Myc” value [6] of the same molecule?
Its value is “selectively inhibits tumor cells with high expression of c-Myc”.

What does the source list for `CC(C)C[C@H](NC(=O)[C@H](CC(C)C)NC(=O)CC1c2ccccc2-c2ccccc21)B(O)O` [Compound A67]?
IC50 (HL60 cells): < 100 nM; IC50 [3]: < 100 nM; IC50 [4]: < 100 nM; IC50 [5]: < 100 nM

Which results are given for `CC(C)C[C@H](NC(=O)[C@H](Cc1c[nH]c2ccccc12)NC(=O)CC1CCCC1)B(O)O` [Compound A69]?
IC50 (HL60 cells): < 100 nM; IC50 [3]: < 100 nM; IC50 [4]: < 100 nM; IC50 [5]: < 100 nM
